Experimental data: PubChem BioAssay (NCI)
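Growth conditions: 96-well plates. Treatment: test compound, 48 hours, 5 concentrations. Analysis: linear interpolation between bracketing concentrations; unreached endpoints set to highest concentration. Definition used: TGI = concentration required for complete inhibition of growth.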

Experiments:
Assay in all cases: NCI tumour cell line growth inhibition, 48 h
EKVX NSCLC = test system: EKVX NSCLC
M14 melanoma = test system: M14 melanoma
RXF 393 renal = test system: RXF 393 renal
ACHN renal = test system: ACHN renal
LXFL 529 NSCLC = test system: LXFL 529 NSCLC
MCF7 breast = test system: MCF7 breast
HT29 colon = test system: HT29 colon
OVCAR-4 ovarian = test system: OVCAR-4 ovarian
DMS 273 small cell lung = test system: DMS 273 small cell lung
XF 498 CNS = test system: XF 498 CNS
MOLT-4 leukemia = test system: MOLT-4 leukemia
NCI/ADR-RES ovarian = test system: NCI/ADR-RES ovarian
SK-MEL-28 melanoma = test system: SK-MEL-28 melanoma
SN12C renal = test system: SN12C renal
NCI-H460 lung = test system: NCI-H460 lung
NCI-H23 lung = test system: NCI-H23 lung
UO-31 renal = test system: UO-31 renal
COLO 205 colon = test system: COLO 205 colon
HOP-62 NSCLC = test system: HOP-62 NSCLC
TK-10 renal = test system: TK-10 renal
U251 CNS = test system: U251 CNS
SNB-75 CNS = test system: SNB-75 CNS
SF-539 CNS = test system: SF-539 CNS
OVCAR-5 ovarian = test system: OVCAR-5 ovarian
SK-MEL-5 melanoma = test system: SK-MEL-5 melanoma
CAKI-1 renal = test system: CAKI-1 renal
K-562 leukemia = test system: K-562 leukemia
A549 NSCLC = test system: A549 NSCLC
HCT-116 colon = test system: HCT-116 colon
KM20L2 colon = test system: KM20L2 colon
SK-MEL-2 melanoma = test system: SK-MEL-2 melanoma
UACC-62 melanoma = test system: UACC-62 melanoma
P388/ADR leukemia = test system: P388/ADR leukemia
UACC-257 melanoma = test system: UACC-257 melanoma
SNB-78 CNS = test system: SNB-78 CNS
SK-OV-3 ovarian = test system: SK-OV-3 ovarian
HOP-18 NSCLC = test system: HOP-18 NSCLC
OVCAR-3 ovarian = test system: OVCAR-3 ovarian
SF-295 CNS = test system: SF-295 CNS
HCT-15 colon = test system: HCT-15 colon
786-0 renal = test system: 786-0 renal
HOP-92 NSCLC = test system: HOP-92 NSCLC
IGROV1 ovarian = test system: IGROV1 ovarian
SW-620 colon = test system: SW-620 colon
LOX IMVI melanoma = test system: LOX IMVI melanoma
RPMI-8226 leukemia = test system: RPMI-8226 leukemia
SF-268 CNS = test system: SF-268 CNS
NCI-H226 lung = test system: NCI-H226 lung
SNB-19 CNS = test system: SNB-19 CNS
RXF-631 renal = test system: RXF-631 renal
M19-MEL melanoma = test system: M19-MEL melanoma
NCI-H522 lung = test system: NCI-H522 lung
CCRF-CEM leukemia = test system: CCRF-CEM leukemia
DMS 114 small cell lung = test system: DMS 114 small cell lung
HL-60(TB) leukemia = test system: HL-60(TB) leukemia
OVCAR-8 ovarian = test system: OVCAR-8 ovarian
P388 leukemia = test system: P388 leukemia
HCC-2998 colon = test system: HCC-2998 colon
A498 renal = test system: A498 renal
DLD-1 colon = test system: DLD-1 colon
MALME-3M melanoma = test system: MALME-3M melanoma
SN12K1 renal = test system: SN12K1 renal
KM12 colon = test system: KM12 colon

Compound `COc1ccc2c(c1)CCc1c(CO)c(COC(=O)NC(C)C)n(C)c1-2` has a TGI (EKVX NSCLC) greater than 100 µM, a TGI (M14 melanoma) of 33.8 µM and a TGI (RXF 393 renal) of 38.7 µM. It also gave a TGI (ACHN renal) of 53.1 µM, a TGI (LXFL 529 NSCLC) of 15.9 µM and a TGI (MCF7 breast) greater than 100 µM. For the same compound, the TGI (HT29 colon) was 13.5 µM, the TGI (OVCAR-4 ovarian) was 53.5 µM and the TGI (DMS 273 small cell lung) was 41.4 µM. It also gave a TGI (XF 498 CNS) greater than 62.6 µM, a TGI (MOLT-4 leukemia) of 8.57 µM and a TGI (NCI/ADR-RES ovarian) of 59.2 µM. The TGI (SK-MEL-28 melanoma) was 28.6 µM, the TGI (SN12C renal) was 45.8 µM and the TGI (NCI-H460 lung) was 26.5 µM. For the same compound, the TGI (NCI-H23 lung) was 22.1 µM, the TGI (UO-31 renal) was 19.6 µM and the TGI (COLO 205 colon) was 4.68 µM. For the same compound, the TGI (HOP-62 NSCLC) was 75.6 µM, the TGI (TK-10 renal) was greater than 100 µM and the TGI (U251 CNS) was 35.8 µM. The TGI (SNB-75 CNS) was greater than 27.3 µM, the TGI (SF-539 CNS) was greater than 87 µM and the TGI (OVCAR-5 ovarian) was greater than 100 µM. The TGI (SK-MEL-5 melanoma) was 15.1 µM, the TGI (CAKI-1 renal) was 77.8 µM and the TGI (K-562 leukemia) was 10.5 µM. For the same compound, the TGI (A549 NSCLC) was greater than 78.5 µM, the TGI (HCT-116 colon) was 11.6 µM and the TGI (KM20L2 colon) was 35.3 µM. The TGI (SK-MEL-2 melanoma) was 58 µM, the TGI (UACC-62 melanoma) was 22.7 µM and the TGI (P388/ADR leukemia) was 6.22 µM. It also gave a TGI (UACC-257 melanoma) of 27.1 µM, a TGI (SNB-78 CNS) of 39.5 µM and a TGI (SK-OV-3 ovarian) of 73.3 µM. It also gave a TGI (HOP-18 NSCLC) of 13.1 µM, a TGI (OVCAR-3 ovarian) of 54.9 µM and a TGI (SF-295 CNS) of 57.7 µM. It also gave a TGI (HCT-15 colon) of 60.8 µM, a TGI (786-0 renal) greater than 100 µM and a TGI (HOP-92 NSCLC) of 22.5 µM. For the same compound, the TGI (IGROV1 ovarian) was 48.3 µM, the TGI (SW-620 colon) was 19.3 µM and the TGI (LOX IMVI melanoma) was 25.4 µM. The TGI (RPMI-8226 leukemia) was 7.05 µM, the TGI (SF-268 CNS) was 63.8 µM and the TGI (NCI-H226 lung) was 14.6 µM. The TGI (SNB-19 CNS) was 56.1 µM, the TGI (RXF-631 renal) was greater than 100 µM and the TGI (M19-MEL melanoma) was 23.3 µM. For the same compound, the TGI (NCI-H522 lung) was 14.4 µM, the TGI (CCRF-CEM leukemia) was 12.5 µM and the TGI (DMS 114 small cell lung) was 12.3 µM. For the same compound, the TGI (HL-60(TB) leukemia) was 5.23 µM, the TGI (OVCAR-8 ovarian) was 21.2 µM and the TGI (P388 leukemia) was 3.54 µM. For the same compound, the TGI (HCC-2998 colon) was 51.5 µM, the TGI (A498 renal) was 77.5 µM and the TGI (DLD-1 colon) was 15.8 µM. It also gave a TGI (MALME-3M melanoma) of 16.2 µM, a TGI (SN12K1 renal) of 17.2 µM and a TGI (KM12 colon) of 28.2 µM.
